Reference: ChEMBL document CHEMBL5131429, “Synthesis and antifungal evaluation of phenol-derived bis(indolyl)methanes combined with FLC against Candida albicans” (Bioorg Med Chem Lett, 2022)
Values after ≈ are worked out from the molar mass of the structure shown.

Experiments:
Assay type in all cases: functional
Candida albicans [1] = test: Antifungal activity against Candida albicans SC5314 by microdilution method
Candida albicans [2] = test: Antifungal activity against Candida albicans CA23 by microdilution method
Candida albicans [3] = test: Antifungal activity against Candida albicans SC5314 in presence of fluconazole by microdilution method
Candida albicans [4] = test: Antifungal activity against Candida albicans CA23 in presence of fluconazole by microdilution method
Candida albicans [5] = test: Antifungal activity against Candida albicans CA23 assessed as fractional inhibitory concentration index in presence of fluconazole by microdilution method
Candida albicans [6] = test: Antifungal activity against Candida albicans SC5314 assessed as fractional inhibitory concentration index in presence of fluconazole by microdilution method

| SMILES | MIC80 (Candida albicans [1]) | MIC80 (Candida albicans [2]) | MIC80 (Candida albicans [3]) | MIC80 (Candida albicans [4]) | fractional inhibitory concentration index (FICI) (Candida albicans [5]) | fractional inhibitory concentration index (FICI) (Candida albicans [6]) |
| --- | --- | --- | --- | --- | --- | --- |
| O=[N+]([O-])c1ccc(O)c(C(c2c[nH]c3ccccc23)c2c[nH]c3ccccc23)c1 | 0.69 µg/mL (≈ 1.8 µM) | 180 µg/mL (≈ 471 µM) | 25.6 µg/mL | 29.3 µg/mL | 0.18 | – |
| Oc1ccc(Br)cc1C(c1c[nH]c2ccccc12)c1c[nH]c2ccccc12 | > 200 µg/mL | > 200 µg/mL | 3.58 µg/mL | 5.81 µg/mL | 0.02 | 0.13 |
| Oc1ccc(Cl)cc1C(c1c[nH]c2ccccc12)c1c[nH]c2ccccc12 | > 200 µg/mL | > 200 µg/mL | 3.27 µg/mL | 31.8 µg/mL | 0.1 | 0.12 |
| Oc1c(Br)cc(Br)cc1C(c1c[nH]c2ccccc12)c1c[nH]c2ccccc12 | > 200 µg/mL | > 200 µg/mL | 2.85 µg/mL | 6.01 µg/mL | 0.02 | 0.11 |

Now from value to compound, other results behind:

| MIC80 (Candida albicans [1]) | MIC80 (Candida albicans [2]) | MIC80 (Candida albicans [3]) | MIC80 (Candida albicans [4]) | SMILES | fractional inhibitory concentration index (FICI) (Candida albicans [5]) | fractional inhibitory concentration index (FICI) (Candida albicans [6]) |
| --- | --- | --- | --- | --- | --- | --- |
| > 200 µg/mL | 18.3 µg/mL (≈ 40.6 µM) | 0.9 µg/mL | 6.59 µg/mL | Oc1c(Cl)cc(Br)cc1C(c1c[nH]c2ccccc12)c1c[nH]c2ccccc12 | 0.36 | 0.04 |
| > 200 µg/mL | > 200 µg/mL | 0.98 µg/mL | 5.92 µg/mL | Oc1ccc(F)cc1C(c1c[nH]c2ccccc12)c1c[nH]c2ccccc12 | 0.02 | 0.04 |
| 4.97 µg/mL (≈ 11.4 µM) | > 200 µg/mL | 0.82 µg/mL | 5.95 µg/mL | Oc1cc(F)c(Br)cc1C(c1c[nH]c2ccccc12)c1c[nH]c2ccccc12 | 0.02 | 0.2 |
| 0.37 µg/mL (≈ 0.97 µM) | 24 µg/mL (≈ 62.8 µM) | 0.94 µg/mL | 5.76 µg/mL | CN(C)c1ccc(C(c2c[nH]c3ccccc23)c2c[nH]c3ccccc23)c(O)c1 | 0.24 | 2.57 |
| > 200 µg/mL | > 200 µg/mL | 3.22 µg/mL | 6.07 µg/mL | Oc1ccccc1C(c1c[nH]c2ccccc12)c1c[nH]c2ccccc12 | 0.03 | 0.12 |
